In US11578069B2, “Compounds for inhibition of α4 β7 integrin” (Gilead Sciences, Inc., priority 2019, dated 2023):

Legend:
α4β7 integrin = molecular target: T1, α4β7 integrin (Homo sapiens, UniProt P13612+P26010); test: α4β7 Integrin Cell Capture Assay; assay type: cell-based; settings: capture of α4β7 integrin expressing RPM18866 cells on MadCAM-1 extracellular domain-coated plate
T1 construct: monitoring the capture of α4β7 integrin expressing cells; endogenous in cells; host or cells: RPMI8866
T1 sequence (P13612 34-1032): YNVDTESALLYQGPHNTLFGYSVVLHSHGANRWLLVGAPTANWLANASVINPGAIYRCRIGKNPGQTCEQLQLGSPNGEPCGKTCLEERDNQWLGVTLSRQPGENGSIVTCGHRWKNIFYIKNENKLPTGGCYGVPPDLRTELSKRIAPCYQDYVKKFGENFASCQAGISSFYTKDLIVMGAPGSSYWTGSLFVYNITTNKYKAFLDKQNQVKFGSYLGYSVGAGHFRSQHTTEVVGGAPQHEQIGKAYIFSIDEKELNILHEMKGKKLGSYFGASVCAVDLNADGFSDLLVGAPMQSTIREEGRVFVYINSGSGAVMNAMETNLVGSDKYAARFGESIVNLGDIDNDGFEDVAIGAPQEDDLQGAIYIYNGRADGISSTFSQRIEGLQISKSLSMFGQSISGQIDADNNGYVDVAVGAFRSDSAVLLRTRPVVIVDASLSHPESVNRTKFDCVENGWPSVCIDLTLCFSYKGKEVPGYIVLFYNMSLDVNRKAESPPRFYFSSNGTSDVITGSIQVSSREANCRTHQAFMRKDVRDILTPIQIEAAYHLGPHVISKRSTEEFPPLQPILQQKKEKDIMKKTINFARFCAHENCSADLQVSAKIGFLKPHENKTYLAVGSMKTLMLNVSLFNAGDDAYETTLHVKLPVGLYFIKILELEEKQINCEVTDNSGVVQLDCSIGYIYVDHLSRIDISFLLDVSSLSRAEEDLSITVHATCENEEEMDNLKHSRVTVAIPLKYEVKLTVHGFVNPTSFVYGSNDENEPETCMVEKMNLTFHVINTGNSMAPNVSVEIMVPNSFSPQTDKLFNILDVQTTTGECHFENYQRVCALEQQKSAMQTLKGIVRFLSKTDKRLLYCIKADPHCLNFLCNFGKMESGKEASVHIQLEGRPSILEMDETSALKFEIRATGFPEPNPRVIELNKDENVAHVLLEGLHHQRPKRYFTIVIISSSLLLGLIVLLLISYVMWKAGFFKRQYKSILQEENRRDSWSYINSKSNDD
T1 sequence (P26010 20-798): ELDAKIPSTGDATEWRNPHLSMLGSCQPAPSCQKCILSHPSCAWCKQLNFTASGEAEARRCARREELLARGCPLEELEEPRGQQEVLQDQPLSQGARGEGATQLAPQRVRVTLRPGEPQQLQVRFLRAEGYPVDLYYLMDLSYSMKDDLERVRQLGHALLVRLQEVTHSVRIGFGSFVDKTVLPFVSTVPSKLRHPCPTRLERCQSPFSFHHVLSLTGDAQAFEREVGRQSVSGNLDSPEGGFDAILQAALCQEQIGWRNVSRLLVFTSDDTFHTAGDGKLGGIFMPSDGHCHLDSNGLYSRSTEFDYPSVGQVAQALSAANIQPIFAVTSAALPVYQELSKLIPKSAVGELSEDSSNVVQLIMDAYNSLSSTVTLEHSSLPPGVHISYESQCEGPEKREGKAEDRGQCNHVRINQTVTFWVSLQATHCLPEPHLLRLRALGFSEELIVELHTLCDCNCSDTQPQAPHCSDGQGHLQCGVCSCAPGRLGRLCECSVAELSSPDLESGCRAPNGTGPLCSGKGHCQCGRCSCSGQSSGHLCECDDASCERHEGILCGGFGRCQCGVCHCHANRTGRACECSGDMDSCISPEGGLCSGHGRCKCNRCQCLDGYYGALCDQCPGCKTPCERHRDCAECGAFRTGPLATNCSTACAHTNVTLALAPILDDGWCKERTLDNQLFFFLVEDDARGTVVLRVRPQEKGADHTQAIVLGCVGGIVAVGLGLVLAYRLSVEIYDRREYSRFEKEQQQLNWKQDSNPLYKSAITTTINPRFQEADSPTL
Experimental: The potency of inhibitors in preventing α4β7 integrin interaction with MadCAM-1 was measured by monitoring the capture of α4β7 integrin expressing cells on a recombinant MadCAM-1 extracellular domain-coated plate.
384-well plates (Corning 3702) were coated with MadCAM-1 extracellular domain by dispensing 20 μL of MAdCAM-1 at 1.0 μg/mL per well and incubating overnight at 4° C. The plates were then washed with PBS and blocked with 3% BSA for 2 hours before being washed again.
(§1) RPM18866 cells were spun down and re-suspended in assay medium (DMEM+0.5% FBS+0.5 mM MnCl2) at a density of 0.5×10^6 cells/mL. The cells were then dispensed (60 μL/well) to a 384-well plate (Greiner 781280) that was previously spotted with 60 nL of test compound per well. The plates were incubated at 37° C. for 1 hour. 50 μL of cells were transferred to the blocked, MadCAM-1-coated plates and incubated for 30 minutes at 37° C. 10 μL of 12% glutaraldehyde containing Hoechst 33342 (0.06 mg/mL) was added to the cells (2% glutaraldehyde and 0.01 mg/mL final concentrations). The plates were incubated for 90 minutes at room temperature. The plates were then washed 3 times with 70 μL of PBS per well and imaged on a Cellomics ArrayScan instrument. The cells that were bound to the plate were counted and plotted against the compound concentration to determine the EC50 of the test compounds.

α4β1 integrin = molecular target: T2, α4β1 integrin (Homo sapiens, UniProt P05556+P13612); test: α4β1 Cell Capture Assay; assay type: cell-based; settings: capture of α4β1 expressing Jurkat cells on VCAM-1 extracellular domain-coated plate
T2 construct: monitoring the capture of α4β1 expressing cells; endogenous in cells; host or cells: Jurkat
Experimental: The potency of inhibitors in preventing α4β1 integrin interaction with VCAM-1 was measured by monitoring the capture of α4β1 expressing cells to a recombinant VCAM-1 extracellular domain-coated plate.
384-well plates (Corning 3702) were coated with VCAM-1 extracellular domain by dispensing 20 μL of VCAM-1 at 0.5 μg/ml per well and incubating overnight at 4° C. The plates were then washed with PBS and blocked with 3% BSA for 2 hours before being washed again.
as §1, with “Jurkat cells” for “RPM18866 cells”, “0.5×10^6 cells/ml.” for “0.5×10^6 cells/mL.”, “blocked, VCAM-1-coated” for “blocked, MadCAM-1-coated”, “10 μl” for “10 μL”, “0.01 mg/ml Hoechst 33342” for “0.01 mg/mL”

T2 sequence (P05556 21-798, one chain of several): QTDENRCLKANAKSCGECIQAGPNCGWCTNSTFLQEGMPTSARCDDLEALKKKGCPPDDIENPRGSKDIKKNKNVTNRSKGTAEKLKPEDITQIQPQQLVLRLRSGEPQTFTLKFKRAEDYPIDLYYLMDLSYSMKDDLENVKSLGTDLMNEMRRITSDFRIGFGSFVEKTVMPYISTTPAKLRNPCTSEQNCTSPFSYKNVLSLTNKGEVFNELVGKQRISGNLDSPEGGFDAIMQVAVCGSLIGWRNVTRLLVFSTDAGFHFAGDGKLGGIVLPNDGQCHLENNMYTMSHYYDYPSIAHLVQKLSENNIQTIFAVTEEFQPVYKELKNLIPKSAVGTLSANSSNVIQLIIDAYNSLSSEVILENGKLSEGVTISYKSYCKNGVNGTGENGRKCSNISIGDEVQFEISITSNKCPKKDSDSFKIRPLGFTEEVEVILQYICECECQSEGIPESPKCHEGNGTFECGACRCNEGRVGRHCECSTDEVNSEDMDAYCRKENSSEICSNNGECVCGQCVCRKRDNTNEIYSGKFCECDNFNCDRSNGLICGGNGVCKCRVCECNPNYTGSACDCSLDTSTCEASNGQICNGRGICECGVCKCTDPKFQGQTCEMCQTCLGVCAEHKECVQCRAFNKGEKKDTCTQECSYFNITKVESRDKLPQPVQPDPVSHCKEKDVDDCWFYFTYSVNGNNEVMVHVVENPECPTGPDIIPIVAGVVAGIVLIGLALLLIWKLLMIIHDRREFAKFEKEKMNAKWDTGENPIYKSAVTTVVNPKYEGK

Work on `Cc1c(-c2ccc(C[C@H](NC(=O)c3c(F)cc(N4CCOC[C@@H]4C(F)(F)F)cc3F)C(=O)O)cc2)c(=O)n(C)c(=O)n1C` [Example 37] yielded an EC50 (α4β7 integrin; Table 2) of 0.4 nM and an EC50 (α4β1 integrin; Table 2) of 9.8 nM.
For `Cc1nc(-c2ccc(C[C@H](NC(=O)c3c(F)cc(N4CCOC[C@@H]4C(F)(F)F)cc3F)C(=O)O)cc2)c(=O)n(C)c1C` [Example 38], the EC50 (α4β7 integrin; Table 2) was 4.9 nM and the EC50 (α4β1 integrin; Table 2) was 86.1 nM.
With `Cc1cc(C[C@H](NC(=O)c2c(F)cc(N3CCOC[C@@H]3C(F)(F)F)cc2F)C(=O)O)ccc1-c1c(C)n(C)c(=O)n(C)c1=O` [Example 39] the EC50 (α4β7 integrin; Table 2) was 0.4 nM and the EC50 (α4β1 integrin; Table 2) was 12.8 nM.
`Cc1cc(C[C@H](NC(=O)c2c(C)cc(N3CCOC[C@@H]3C(F)(F)F)cc2F)C(=O)O)ccc1-c1c(C)nc(C)n(C)c1=O` [Example 40] gave an EC50 (α4β7 integrin; Table 2) of 0.3 nM and an EC50 (α4β1 integrin; Table 2) of 7.7 nM.
Work on `Cc1cc(C[C@H](NC(=O)c2c(C)cc(N3CCOC[C@@H]3C(F)(F)F)cc2F)C(=O)O)ccc1-c1nc(C)c(C)n(C)c1=O` [Example 42] yielded an EC50 (α4β7 integrin; Table 2) of 0.3 nM and an EC50 (α4β1 integrin; Table 2) of 5.8 nM.
Work on `CC[C@@H](Nc1cc(F)c(C(=O)N[C@@H](Cc2ccc(-n3c(=O)cc(C)n(C)c3=O)nc2)C(=O)O)c(F)c1)C(F)(F)F` [Example 43] yielded an EC50 (α4β7 integrin; Table 2) of 15.9 nM and an EC50 (α4β1 integrin; Table 2) of 661 nM.
With `CC[C@@H](Nc1cc(F)c(C(=O)N[C@@H](Cc2ccc(-c3c(C)c4cc(F)ccc4n(C)c3=O)nc2)C(=O)O)c(F)c1)C(F)(F)F` [Example 44] the EC50 (α4β7 integrin; Table 2) was 2.9 nM and the EC50 (α4β1 integrin; Table 2) was 37.6 nM.
In the case of `COc1cc(C[C@H](NC(=O)c2c(F)cc(N3CCOC[C@@H]3C(F)(F)F)cc2F)C(=O)O)ccc1-n1c(=O)c2ccncc2n(C)c1=O` [Example 53], the EC50 (α4β7 integrin; Table 2) is reported as 0.2 nM and the EC50 (α4β1 integrin; Table 2) is reported as 18.6 nM.
`Cn1c(=O)n(-c2ccc(C[C@H](NC(=O)c3c(F)cc(N4CCOC[C@@H]4C(F)(F)F)cc3Cl)C(=O)O)cn2)c(=O)c2ccncc21` [Example 55, (S)-2-(2-chloro-6-fluoro-4-((R)-3-(trifluoromethyl)morpholino)benzamido)-3-(6-(1-methyl-2,4-dioxo-1,4-dihydropyrido[3,4-d]pyrimidin-3(2H)-yl)pyridin-3-yl)propanoic acid] was tested, and the EC50 (α4β7 integrin; Table 1) was 0.1 nM and the EC50 (α4β1 integrin; Table 1) was 3.4 nM.
`Cc1cc(N2CCOC[C@@H]2CC(F)F)cc(F)c1C(=O)N[C@@H](Cc1ccc(-n2c(=O)c3c(n(C)c2=O)CCOC3)cc1)C(=O)O` [Example 57, (S)-2-(4-((S)-3-(2,2-difluoroethyl)morpholino)-2-fluoro-6-methylbenzamido)-3-(4-(1-methyl-2,4-dioxo-1,5,7,8-tetrahydro-2H-pyrano[4,3-d]pyrimidin-3(4H)-yl)phenyl)propanoic acid] gave an EC50 (α4β7 integrin; Table 1) of 0.2 nM and an EC50 (α4β1 integrin; Table 1) of 2.8 nM.
`Cc1cc(N2CCOC[C@@H]2C(F)(F)F)cc(F)c1C(=O)N[C@@H](Cc1ccc(-n2c(=O)c3c(n(C)c2=O)CCOC3)cc1)C(=O)O` [Example 59, (S)-2-(2-fluoro-6-methyl-4-((R)-3-(trifluoromethyl)morpholino)benzamido)-3-(4-(1-methyl-2,4-dioxo-1,5,7,8-tetrahydro-2H-pyrano[4,3-d]pyrimidin-3(4H)-yl)phenyl)propanoic acid] showed an EC50 (α4β7 integrin; Table 1) of 0.1 nM and an EC50 (α4β1 integrin; Table 1) of 2.9 nM.
For `Cn1c2c(c(=O)n(-c3ccc(C[C@H](NC(=O)c4c(F)cc(N5CCOC[C@@H]5C(F)(F)F)cc4F)C(=O)O)cc3)c1=O)CCOC2` [Example 61, (S)-2-(2,6-difluoro-4-((R)-3-(trifluoromethyl)morpholino)benzamido)-3-(4-(1-methyl-2,4-dioxo-1,2,4,5,6,8-hexahydro-3H-pyrano[3,4-d]pyrimidin-3-yl)phenyl)propanoic acid], the EC50 (α4β7 integrin; Table 1) was 0.4 nM and the EC50 (α4β1 integrin; Table 1) was 11.5 nM.
With `Cc1cc(N2CCOC[C@@H]2C(F)(F)F)cc(F)c1C(=O)N[C@@H](Cc1ccc(-n2c(=O)c3c(n(C)c2=O)COCC3)cc1)C(=O)O` [Example 63, (S)-2-(2-fluoro-6-methyl-4-((R)-3-(trifluoromethyl)morpholino)benzamido)-3-(4-(1-methyl-2,4-dioxo-1,2,4,5,6,8-hexahydro-3H-pyrano[3,4-d]pyrimidin-3-yl)phenyl)propanoic acid] the EC50 (α4β7 integrin; Table 1) was 0.1 nM and the EC50 (α4β1 integrin; Table 1) was 3.7 nM.
In the case of `Cc1cc(N2CCOC[C@@H]2C(F)(F)F)cc(F)c1C(=O)N[C@@H](Cc1ccc(-n2c(=O)c3c(n(C)c2=O)CCC3)cc1)C(=O)O` [Example 64, (S)-2-(2-fluoro-6-methyl-4-((R)-3-(trifluoromethyl)morpholino)benzamido)-3-(4-(1-methyl-2,4-dioxo-1,2,4,5,6,7-hexahydro-3H-cyclopenta[d]pyrimidin-3-yl)phenyl)propanoic acid], the EC50 (α4β7 integrin; Table 1) is reported as 0.1 nM and the EC50 (α4β1 integrin; Table 1) is reported as 1.8 nM.
Work on `Cc1cc(N2CCOC[C@@H]2C(F)(F)F)cc(F)c1C(=O)N[C@@H](Cc1ccc(-n2c(=O)c3c(n(C)c2=O)COC3)cc1)C(=O)O` [Example 66, (S)-2-(2-fluoro-6-methyl-4-((R)-3-(trifluoromethyl)morpholino)benzamido)-3-(4-(1-methyl-2,4-dioxo-1,2,5,7-tetrahydrofuro[3,4-d]pyrimidin-3(4H)-yl)phenyl)propanoic acid] yielded an EC50 (α4β7 integrin; Table 1) of 0.1 nM and an EC50 (α4β1 integrin; Table 1) of 4.8 nM.
